Results published in patent US6391305B1, “Conjugates useful in the treatment of prostate cancer” (priority 1999, dated 2002).
Like-named read-outs stand apart in the source and are kept apart here. Non-standard residues stand in square brackets, D forms with d. Residues, ends and D or L forms follow the SMILES beside them. *: point of attachment. Doxorubicin(3'-N) = COc1cccc2c1C(=O)c1c(O)c3c(c(O)c1C2=O)C[C@@](O)(C(=O)CO)C[C@@H]3O[C@H]1C[C@H](N*)[C@H](O)[C@H](C)O1; Dox = doxorubicin, linked through its 3'-amine to the C-terminal carbonyl; Decanoyl(3,6,9-trioxa) = COCCOCCOCC(=O)*; Glyceroyl(2S) = O=C([C@@H](O)CO)*; Glyceroyl(2R) = O=C([C@H](O)CO)*; hArg = N=C(N)NCCCC[C@H](N)C(=O)O; X1 = O=C([C@H](O)[C@@H](O)CO)*; Chg = N[C@H](C(=O)O)C1CCCCC1; hSer = N[C@@H](CCO)C(=O)O; Glycolyl = O=C(CO)*; X3 = O=C(C(O)CO)*

How the values were obtained:
[1] = tested on: LNCap prostate tumor cells; assay: In vitro cytotoxicity, Alamar Blue assay, LNCaP; assay type: cell-based; conditions: 72 HRS, read-out: LNCaP Cell Kill in 72 HRS, {48 HRS} EC 50
Description: (§1) The cytotoxicities of the cleaveable oligopeptide-doxorubicin conjugates, prepared as described in Examples 3-6, against a line of cells which is known to be killed by unmodified doxorubicin was assessed with an Alamar Blue assay. Specifically, cell cultures of LNCap prostate tumor cells or DuPRO cells in 96 well plates was diluted with medium containing various concentrations of a given conjugate (final plate well volume of 200 μl ). The cells were incubated for 3 days at 37° C., 20 μl of Alamar Blue is added to the assay well. The cells were further incubated and the assay plates were read on a EL-310 ELISA reader at the dual wavelengths of 570 and 600 nm at 4 and 7 hours after addition of Alamar Blue. Relative percentage viability at the various concentration of conjugate tested was then calculated versus control (no conjugate) cultures. If no salt is indicated, the free conjugate was tested.

DuPRO cells = assay: In vitro cytotoxicity, Alamar Blue assay, DuPRO; assay type: cell-based; conditions: value in parentheses beside the LNCaP value, read-out: DuPRO cell kill EC 50
Description: as §1

[2] = target: T1, enzymatically active free PSA (Homo sapiens, UniProt P07288); assay: Recognition (cleavage) of oligopeptide-doxorubicin conjugates by free PSA, HPLC; assay type: biochemical; conditions: DOX conjugate; for Time to 50% Substrate Cleavage by York PSA: PSA digestion buffer pH7.4, 140 mM NaCl, molar ratio to PSA 100 to 1
T1 construct: required for 50% cleavage of the noted oligopeptides with enzymatically active free PSA
Description: If no salt is indicated for the conjugate, the free conjugate was tested.

[3] = listed as PEG(2)-ShRYQ-SL-DOX(3′)

T1 sequence (P07288 25-261): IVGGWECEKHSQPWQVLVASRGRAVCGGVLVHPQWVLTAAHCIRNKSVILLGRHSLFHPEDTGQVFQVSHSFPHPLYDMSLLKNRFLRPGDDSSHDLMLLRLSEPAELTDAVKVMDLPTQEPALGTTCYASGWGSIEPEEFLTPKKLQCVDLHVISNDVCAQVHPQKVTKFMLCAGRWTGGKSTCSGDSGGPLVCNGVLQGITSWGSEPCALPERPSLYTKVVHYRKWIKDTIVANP

Row | Molecule | EC50 [1] | EC50 (DuPRO cells) | Time to 50% Substrate Cleavage by York PSA [2] | EC50 [1, 3] | EC50 (DuPRO cells; [3]) | Substrate cleavage by York PSA at 3 HOUR ([2]; 3 hours)
1 | COc1cccc2c1C(=O)c1c(O)c3c(c(O)c1C2=O)C[C@@](O)(C(=O)CO)C[C@@H]3O[C@H]1C[C@H](NC(=O)[C@H](CC(C)C)NC(=O)[C@H](CO)NC(=O)[C@H](CCC(N)=O)NC(=O)[C@@H](NC(=O)[C@H](CO)NC(=O)[C@H](CO)NC(=O)[C@H](CCCCNC(=N)N)NC(=O)[C@H](O)CO)C2CCCCC2)[C@H](O)[C@H](C)O1 [(d)(2,3-dihydroxypropionyl)-hArgSerSerChgGln-SerLeu-DOX(3′)] ({Glyceroyl(2R)}-[hArg]SS[Chg]QSL-{Doxorubicin(3'-N)}) | 7.7 µM | > 100 µM | 12 min |  |  | 
2 | COCCOCCOCC(=O)N[C@@H](CO)C(=O)N[C@@H](CO)C(=O)N[C@H](C(=O)N[C@@H](CCC(N)=O)C(=O)N[C@@H](CO)C(=O)N[C@@H](CC(C)C)C(=O)N[C@H]1C[C@H](O[C@H]2C[C@](O)(C(=O)CO)Cc3c(O)c4c(c(O)c32)C(=O)c2c(OC)cccc2C4=O)O[C@@H](C)[C@H]1O)C1CCCCC1 [PEG(2)SSChgQ-SL-DOX (3′), PEG(2)SerSerChgGln-SerLeu-DOX (3′)] ({Decanoyl(3,6,9-trioxa)}-SS[Chg]QSL-{Doxorubicin(3'-N)}) | 8.8 µM | > 100 µM | 90 min |  |  | 
3 | COc1cccc2c1C(=O)c1c(O)c3c(c(O)c1C2=O)C[C@@](O)(C(=O)CO)C[C@@H]3O[C@H]1C[C@H](NC(=O)[C@H](CC(C)C)NC(=O)[C@H](CO)NC(=O)[C@H](CCC(N)=O)NC(=O)[C@@H](NC(=O)[C@H](CO)NC(=O)[C@H](CO)NC(=O)[C@H](CCCCNC(=N)N)NC(=O)[C@@H](O)CO)C2CCCCC2)[C@H](O)[C@H](C)O1 [(l)(2,3-dihydroxypropionyl)hArgSerSerChgGlnSerLeu-DOX (3′)] ({Glyceroyl(2S)}-[hArg]SS[Chg]QSL-{Doxorubicin(3'-N)}) | 7.5 µM | > 100 µM | 12 min |  |  | 
4 | COc1cccc2c1C(=O)c1c(O)c3c(c(O)c1C2=O)C[C@@](O)(C(=O)CO)C[C@@H]3O[C@H]1C[C@H](NC(=O)[C@H](CC(C)C)NC(=O)[C@H](CO)NC(=O)[C@H](CCC(N)=O)NC(=O)[C@@H](NC(=O)[C@H](CCCCNC(=N)N)NC(=O)[C@H](CO)NC(=O)[C@H](O)[C@@H](O)CO)C2CCCCC2)[C@H](O)[C@H](C)O1 [(2R,3S) 2,3,4-trihydroxybutanoyl-SerhArgChgGln-SerLeu-DOX (3′)] (X1-S[hArg][Chg]QSL-{Doxorubicin(3'-N)}) | 14.1 µM | > 100 µM | 45 min |  |  | 
5 | COc1cccc2c1C(=O)c1c(O)c3c(c(O)c1C2=O)C[C@@](O)(C(=O)CO)C[C@@H]3O[C@H]1C[C@H](NC(=O)[C@H](CC(C)C)NC(=O)[C@H](CO)NC(=O)[C@H](CCC(N)=O)NC(=O)[C@@H](NC(=O)[C@H](CO)NC(=O)[C@H](CO)NC(=O)[C@H](CO)NC(=O)CO)C2CCCCC2)[C@H](O)[C@H](C)O1 [2-hydroxyacetyl-SSSChgQ-SL-DOX (3′), N-(2-Hydroxyacetyl)-Ser-Ser-Ser-Chg-Gln-Ser-Leu-Dox] (Glycolyl-SSS[Chg]QSL-{Doxorubicin(3'-N)}) | 7.2 µM | > 100 µM | 25 min |  |  | 
6 | COCCOCCOCC(=O)N[C@@H](CO)C(=O)N[C@@H](CCCCNC(=N)N)C(=O)N[C@@H](Cc1ccc(O)cc1)C(=O)N[C@@H](CCC(N)=O)C(=O)N[C@@H](CO)C(=O)N[C@@H](CC(C)C)C(=O)N[C@H]1C[C@H](O[C@H]2C[C@](O)(C(=O)CO)Cc3c(O)c4c(c(O)c32)C(=O)c2c(OC)cccc2C4=O)O[C@@H](C)[C@H]1O [PEG(2)-SHomoRYQ-SL-DOX(3′), PEG(2)-SerhArgTyrGln-SerLeu-DOX(3′)] ({Decanoyl(3,6,9-trioxa)}-S[hArg]YQSL-{Doxorubicin(3'-N)}) |  |  | 35 min | 4.5 µM | > 100 µM | 
7 | COc1cccc2c1C(=O)c1c(O)c3c(c(O)c1C2=O)C[C@@](O)(C(=O)CO)C[C@@H]3O[C@H]1C[C@H](NC(=O)[C@H](CC(C)C)NC(=O)[C@H](CO)NC(=O)[C@H](CCC(N)=O)NC(=O)[C@@H](NC(=O)[C@H](CO)NC(=O)[C@H](CO)NC(=O)[C@H](O)CO)C2CCCCC2)[C@H](O)[C@H](C)O1 [(d)(2,3-dihydroxypropionyl)SerSerChgGln-SerLeu-DOX (3′)] ({Glyceroyl(2R)}-SS[Chg]QSL-{Doxorubicin(3'-N)}) | 9.1 µM | > 100 µM | 120 min |  |  | 
8 | COc1cccc2c1C(=O)c1c(O)c3c(c(O)c1C2=O)C[C@@](O)(C(=O)CO)C[C@@H]3O[C@H]1C[C@H](NC(=O)[C@H](CC(C)C)NC(=O)[C@H](CO)NC(=O)[C@H](CCC(N)=O)NC(=O)[C@@H](NC(=O)[C@H](CO)NC(=O)[C@H](CO)NC(=O)CO)C2CCCCC2)[C@H](O)[C@H](C)O1 [2-hydroxyacetyl-SSChgQ-SL-DOX (3′)] (Glycolyl-SS[Chg]QSL-{Doxorubicin(3'-N)}) | 4.8 µM | > 100 µM | 45 min |  |  | 
9 | N-[2-{2-(2-methoxyethoxy)ethoxy}acetyl]-Ser-Ser-Ser-Chg-Gln-Ser-Leu-Dox ({Decanoyl(3,6,9-trioxa)}-SSS[Chg]QSL-Dox) [PEG(2)-SSSChgQ-SL-DOX (3′)] | 10 µM | > 100 µM | 60 min |  |  | 
10 | COc1cccc2c1C(=O)c1c(O)c3c(c(O)c1C2=O)C[C@@](O)(C(=O)CO)C[C@@H]3O[C@H]1C[C@H](NC(=O)[C@H](CC(C)C)NC(=O)[C@H](CO)NC(=O)[C@H](CCC(N)=O)NC(=O)[C@@H](NC(=O)[C@H](CO)NC(=O)[C@H](CO)NC(=O)[C@H](CCO)NC(=O)C(O)CO)C2CCCCC2)[C@H](O)[C@H](C)O1 (stereo partly drawn) [(2,3-dihydroxypropionyl)-hSerSerSerChgGln-SerLeu-DOX (3′)] (X3-[hSer]SS[Chg]QSL-{Doxorubicin(3'-N)}) | 5.1 µM | 90 µM | 35 min |  |  | 
11 | COc1cccc2c1C(=O)c1c(O)c3c(c(O)c1C2=O)C[C@@](O)(C(=O)CO)C[C@@H]3O[C@H]1C[C@H](NC(=O)[C@H](CC(C)C)NC(=O)[C@H](CO)NC(=O)[C@H](CCC(N)=O)NC(=O)[C@@H](NC(=O)[C@H](CO)NC(=O)[C@H](CO)NC(=O)[C@H](CO)NC(=O)[C@H](O)CO)C2CCCCC2)[C@H](O)[C@H](C)O1 [N-2(R)-2,3-dihydroxypropionyl-Ser-Ser-Ser-Chg-Gln-Ser-Leu-Dox] ({Glyceroyl(2R)}-SSS[Chg]QSL-{Doxorubicin(3'-N)}) | 5.8 µM | > 100 µM | 55 min |  |  | 
12 | COc1cccc2c1C(=O)c1c(O)c3c(c(O)c1C2=O)C[C@@](O)(C(=O)CO)C[C@@H]3O[C@H]1C[C@H](NC(=O)[C@@H](CC(C)C)NC(=O)[C@H](CO)NC(=O)[C@H](CCC(N)=O)NC(=O)[C@@H](NC(=O)[C@H](CO)NC(=O)[C@H](CO)NC(=O)[C@H](CO)NC(=O)[C@@H](O)CO)C2CCCCC2)[C@H](O)[C@H](C)O1 [(l)(2,3-dihydroxypropionyl)SerSerSerChgGln-Ser(dLeu)-DOX (3′)] ({Glyceroyl(2S)}-SSS[Chg]QS[dL]-{Doxorubicin(3'-N)}) | 91 µM | > 100 µM | 180 min |  |  | 
13 | COc1cccc2c1C(=O)c1c(O)c3c(c(O)c1C2=O)C[C@@](O)(C(=O)CO)C[C@@H]3O[C@H]1C[C@H](NC(=O)[C@H](CC(C)C)NC(=O)[C@H](CO)NC(=O)[C@H](CCC(N)=O)NC(=O)[C@@H](NC(=O)[C@H](CO)NC(=O)[C@H](CO)NC(=O)[C@H](CO)NC(=O)[C@@H](O)CO)C2CCCCC2)[C@H](O)[C@H](C)O1 [N-2(S)-2,3-dihydroxypropionyl-Ser-Ser-Ser-Chg-Gln-Ser-Leu-Dox] ({Glyceroyl(2S)}-SSS[Chg]QSL-{Doxorubicin(3'-N)}) | 5.5 µM | > 100 µM | 25 min |  |  | 
14 | COc1cccc2c1C(=O)c1c(O)c3c(c(O)c1C2=O)C[C@@](O)(C(=O)CO)C[C@@H]3O[C@H]1C[C@H](NC(=O)[C@H](CC(C)C)NC(=O)[C@H](CO)NC(=O)[C@H](CCC(N)=O)NC(=O)[C@@H](NC(=O)[C@H](CCCCNC(=N)N)NC(=O)[C@H](CO)NC(=O)[C@H](O)CO)C2CCCCC2)[C@H](O)[C@H](C)O1 [(d) 2,3-dihydroxypropionyl-SerhArgChgGln-SerLeu-DOX (3′)] ({Glyceroyl(2R)}-S[hArg][Chg]QSL-{Doxorubicin(3'-N)}) | 5.8 µM | > 100 µM | 65 min |  |  | 
15 | COc1cccc2c1C(=O)c1c(O)c3c(c(O)c1C2=O)C[C@@](O)(C(=O)CO)C[C@@H]3O[C@H]1C[C@H](NC(=O)[C@@H](CC(C)C)NC(=O)[C@H](CO)NC(=O)[C@H](CCC(N)=O)NC(=O)[C@@H](NC(=O)[C@H](CO)NC(=O)[C@H](CO)NC(=O)[C@@H](O)CO)C2CCCCC2)[C@H](O)[C@H](C)O1 [(l)(2,3-dihydroxypropionyl)SerSerChgGln-Ser(dLeu)-DOX (3′)] ({Glyceroyl(2S)}-SS[Chg]QS[dL]-{Doxorubicin(3'-N)}) | > 100 µM | > 100 µM |  |  |  | 22%
